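Protocol summary: plate cells (96-well), add compound at 5 concentrations, incubate 48 h, interpolate endpoints linearly. GI50 = concentration required for 50% inhibition of growth. TGI: total growth inhibition.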
What was measured:
Assay in all cases: inhibition of tumour cell growth, NCI panel, 48 h
786-0 renal = tested on: 786-0 renal
A498 renal = tested on: A498 renal
A549 NSCLC = tested on: A549 NSCLC
ACHN renal = tested on: ACHN renal
BT-549 breast = tested on: BT-549 breast
CAKI-1 renal = tested on: CAKI-1 renal
CCRF-CEM leukemia = tested on: CCRF-CEM leukemia
COLO 205 colon = tested on: COLO 205 colon
DU-145 prostate = tested on: DU-145 prostate
EKVX NSCLC = tested on: EKVX NSCLC
HCC-2998 colon = tested on: HCC-2998 colon
HCT-116 colon = tested on: HCT-116 colon
HCT-15 colon = tested on: HCT-15 colon
HL-60(TB) leukemia = tested on: HL-60(TB) leukemia
HOP-62 NSCLC = tested on: HOP-62 NSCLC
HOP-92 NSCLC = tested on: HOP-92 NSCLC
HS 578T breast = tested on: HS 578T breast
HT29 colon = tested on: HT29 colon
IGROV1 ovarian = tested on: IGROV1 ovarian
K-562 leukemia = tested on: K-562 leukemia
KM12 colon = tested on: KM12 colon
LOX IMVI melanoma = tested on: LOX IMVI melanoma
M14 melanoma = tested on: M14 melanoma
MALME-3M melanoma = tested on: MALME-3M melanoma
MCF7 breast = tested on: MCF7 breast
MDA-MB-231 breast = tested on: MDA-MB-231 breast
MDA-MB-435 = tested on: MDA-MB-435
MDA-MB-468 breast = tested on: MDA-MB-468 breast
MOLT-4 leukemia = tested on: MOLT-4 leukemia
NCI-H226 lung = tested on: NCI-H226 lung
NCI-H23 lung = tested on: NCI-H23 lung
NCI-H460 lung = tested on: NCI-H460 lung
NCI-H522 lung = tested on: NCI-H522 lung
NCI/ADR-RES ovarian = tested on: NCI/ADR-RES ovarian
OVCAR-3 ovarian = tested on: OVCAR-3 ovarian
OVCAR-4 ovarian = tested on: OVCAR-4 ovarian
OVCAR-5 ovarian = tested on: OVCAR-5 ovarian
OVCAR-8 ovarian = tested on: OVCAR-8 ovarian
PC-3 prostate = tested on: PC-3 prostate
RPMI-8226 leukemia = tested on: RPMI-8226 leukemia
RXF 393 renal = tested on: RXF 393 renal
SF-268 CNS = tested on: SF-268 CNS
SF-295 CNS = tested on: SF-295 CNS
SF-539 CNS = tested on: SF-539 CNS
SK-MEL-2 melanoma = tested on: SK-MEL-2 melanoma
SK-MEL-28 melanoma = tested on: SK-MEL-28 melanoma
SK-MEL-5 melanoma = tested on: SK-MEL-5 melanoma
SK-OV-3 ovarian = tested on: SK-OV-3 ovarian
SN12C renal = tested on: SN12C renal
SNB-19 CNS = tested on: SNB-19 CNS
SNB-75 CNS = tested on: SNB-75 CNS
SR leukemia = tested on: SR leukemia
SW-620 colon = tested on: SW-620 colon
T-47D breast = tested on: T-47D breast
TK-10 renal = tested on: TK-10 renal
U251 CNS = tested on: U251 CNS
UACC-257 melanoma = tested on: UACC-257 melanoma
UACC-62 melanoma = tested on: UACC-62 melanoma
UO-31 renal = tested on: UO-31 renal

O=C1NC(=NC23CC4CC(CC(C4)C2)C3)N/C1=C\c1ccc2ncoc2c1
GI50 (786-0 renal): 434 nM | TGI (786-0 renal): > 100000 nM | GI50 (A498 renal): 312 nM | TGI (A498 renal): 919 nM | GI50 (A549 NSCLC): 283 nM | TGI (A549 NSCLC): > 100000 nM | GI50 (ACHN renal): 210 nM | TGI (ACHN renal): 5200 nM | GI50 (BT-549 breast): 160 nM | TGI (BT-549 breast): 1400 nM | GI50 (CAKI-1 renal): 391 nM | TGI (CAKI-1 renal): > 100000 nM | GI50 (CCRF-CEM leukemia): 267 nM | GI50 (COLO 205 colon): 405 nM | TGI (COLO 205 colon): 5910 nM | GI50 (DU-145 prostate): 315 nM | TGI (DU-145 prostate): > 100000 nM | GI50 (EKVX NSCLC): 469 nM | TGI (EKVX NSCLC): 4560 nM | GI50 (HCC-2998 colon): 588 nM | TGI (HCC-2998 colon): 7530 nM | GI50 (HCT-116 colon): 99.3 nM | TGI (HCT-116 colon): > 100000 nM | GI50 (HCT-15 colon): 240 nM | TGI (HCT-15 colon): > 100000 nM | GI50 (HL-60(TB) leukemia): 308 nM | TGI (HL-60(TB) leukemia): 2290 nM | GI50 (HOP-62 NSCLC): 413 nM | TGI (HOP-62 NSCLC): > 100000 nM | GI50 (HOP-92 NSCLC): 511 nM | TGI (HOP-92 NSCLC): > 91700 nM | GI50 (HS 578T breast): 412 nM | TGI (HS 578T breast): 4200 nM | GI50 (HT29 colon): 1520 nM | TGI (HT29 colon): > 100000 nM | GI50 (IGROV1 ovarian): 430 nM | TGI (IGROV1 ovarian): > 44800 nM | GI50 (K-562 leukemia): 589 nM | TGI (K-562 leukemia): > 100000 nM | GI50 (KM12 colon): 342 nM | TGI (KM12 colon): > 76000 nM | GI50 (LOX IMVI melanoma): 239 nM | TGI (LOX IMVI melanoma): > 100000 nM | GI50 (M14 melanoma): 325 nM | TGI (M14 melanoma): > 100000 nM | GI50 (MALME-3M melanoma): 952 nM | TGI (MALME-3M melanoma): 3710 nM | GI50 (MCF7 breast): 324 nM | TGI (MCF7 breast): > 100000 nM | GI50 (MDA-MB-231 breast): 369 nM | TGI (MDA-MB-231 breast): 8050 nM | GI50 (MDA-MB-435): 613 nM | TGI (MDA-MB-435): > 100000 nM | GI50 (MDA-MB-468 breast): 169 nM | TGI (MDA-MB-468 breast): 548 nM | GI50 (MOLT-4 leukemia): 281 nM | TGI (MOLT-4 leukemia): > 100000 nM | GI50 (NCI-H226 lung): 475 nM | TGI (NCI-H226 lung): > 100000 nM | GI50 (NCI-H23 lung): 217 nM | TGI (NCI-H23 lung): 1510 nM | GI50 (NCI-H460 lung): 385 nM | TGI (NCI-H460 lung): > 55500 nM | GI50 (NCI-H522 lung): 230 nM | TGI (NCI-H522 lung): 5630 nM | GI50 (NCI/ADR-RES ovarian): 253 nM | TGI (NCI/ADR-RES ovarian): 1210 nM | GI50 (OVCAR-3 ovarian): 243 nM | TGI (OVCAR-3 ovarian): > 84300 nM | GI50 (OVCAR-4 ovarian): 902 nM | TGI (OVCAR-4 ovarian): > 43300 nM | GI50 (OVCAR-5 ovarian): 322 nM | TGI (OVCAR-5 ovarian): > 100000 nM | GI50 (OVCAR-8 ovarian): 293 nM | TGI (OVCAR-8 ovarian): > 100000 nM | GI50 (PC-3 prostate): 338 nM | TGI (PC-3 prostate): > 100000 nM | GI50 (RPMI-8226 leukemia): 279 nM | TGI (RPMI-8226 leukemia): 28500 nM | GI50 (RXF 393 renal): 215 nM | TGI (RXF 393 renal): 477 nM | GI50 (SF-268 CNS): 412 nM | TGI (SF-268 CNS): 12800 nM | GI50 (SF-295 CNS): 487 nM | TGI (SF-295 CNS): > 100000 nM | GI50 (SF-539 CNS): 103 nM | TGI (SF-539 CNS): 474 nM | GI50 (SK-MEL-2 melanoma): 500 nM | TGI (SK-MEL-2 melanoma): 1320 nM | GI50 (SK-MEL-28 melanoma): 333 nM | TGI (SK-MEL-28 melanoma): 1830 nM | GI50 (SK-MEL-5 melanoma): 144 nM | TGI (SK-MEL-5 melanoma): 5650 nM | GI50 (SK-OV-3 ovarian): 4040 nM | TGI (SK-OV-3 ovarian): > 100000 nM | GI50 (SN12C renal): 254 nM | TGI (SN12C renal): > 100000 nM | GI50 (SNB-19 CNS): 319 nM | TGI (SNB-19 CNS): > 100000 nM | GI50 (SNB-75 CNS): 280 nM | TGI (SNB-75 CNS): 1400 nM | GI50 (SR leukemia): 45.1 nM | TGI (SR leukemia): 2480 nM | GI50 (SW-620 colon): 318 nM | TGI (SW-620 colon): > 100000 nM | GI50 (T-47D breast): 427 nM | TGI (T-47D breast): > 100000 nM | GI50 (TK-10 renal): 737 nM | TGI (TK-10 renal): > 100000 nM | GI50 (U251 CNS): 303 nM | TGI (U251 CNS): > 100000 nM | GI50 (UACC-257 melanoma): 863 nM | TGI (UACC-257 melanoma): > 34400 nM | GI50 (UACC-62 melanoma): 347 nM | TGI (UACC-62 melanoma): 1390 nM | GI50 (UO-31 renal): 358 nM

Source: PubChem BioAssay (NCI)
